Our source for the MIC values is patent publication US20140038989A1, “TETRAHYDROPYRAZOLO [1,5-A] PYRIMIDINE AS ANTI-TUBERCULOSIS COMPOUNDS” (Glaxo Group Limited, priority 2011, published 2014).

Molecules are shown by their SMILES. ≈ marks a conversion by molar mass, not a printed value. A value given as a limit tells only on which side of the number the result lay.

The test deals with Mycobacterium tuberculosis H37Rv. The test can be described thus: Mycobacterium tuberculosis H37Rv Inhibition Assay (Whole Cell Assay). The test is classed as cell-based. The note with it: ATCC 25618 / H37Rv, H37Rv strain (ATCC25618), Middlebrook 7H9, six days at 37° C., resazurin fluorescence after 48 hours.
For orientation: MIC means the lowest concentration that inhibits growth of the organism. High values mean a less susceptible organism, low ones a more susceptible organism. `CCc1ccc([C@H]2C[C@@H](C(F)(F)F)n3ncc(C(=O)NCc4ccc(C(F)(F)F)cc4)c3N2)cc1` (relative stereo) [Example 6, Cis-5-(4-ethylphenyl)-7-(trifluoromethyl)-N-(4-(trifluoromethyl)benzyl)-4,5,6,7-tetrahydropyrazolo[1,5-a]pyrimidine-3-carboxamide]: the MIC was ≤ 1 µM. For `CCc1ccc([C@H]2C[C@@H](C(F)(F)F)n3ncc(C(=O)NCc4ccc(OC)cc4)c3N2)cc1` (relative stereo) [Example 1, Cis-5-(4-ethylphenyl)-N-(4-methoxybenzyl)-7-(trifluoromethyl)-4,5,6,7-tetrahydropyrazolo[1,5-a]pyrimidine-3-carboxamide] the value was ≤ 1 µM; for `CCc1ccc([C@H]2C[C@@H](C(F)(F)F)n3ncc(C(=O)NCc4cccc(F)c4)c3N2)cc1` (relative stereo) [Example 60, Cis-5-(4-ethylphenyl)-N-(3-fluorobenzyl)-7-(trifluoromethyl)-4,5,6,7-tetrahydropyrazolo[1,5-a]pyrimidine-3-carboxamide], ≤ 1 µM; for `CCc1ccc([C@H]2C[C@@H](C(F)(F)F)n3ncc(C(=O)NCc4ccc(C)c(C)c4)c3N2)cc1` (relative stereo) [Example 65, Cis-N-(3,4-dimethylbenzyl)-5-(4-ethylphenyl)-7-(trifluoromethyl)-4,5,6,7-tetrahydropyrazolo[1,5-a]pyrimidine-3-carboxamide], ≤ 1 µM. For `CCc1ccc([C@H]2C[C@@H](C(F)(F)F)n3ncc(C(=O)NCc4cccc(OC)c4)c3N2)cc1` (relative stereo) [Example 8, Cis-5-(4-ethylphenyl)-N-{[3-(methyloxy)phenyl]methyl}-7-(trifluoromethyl)-4,5,6,7-tetrahydropyrazolo[1,5-a]pyrimidine-3-carboxamide] the value was ≤ 1 µM; for `Cc1ccc([C@H]2C[C@@H](C(F)(F)F)n3ncc(C(=O)NCc4ccc(C(F)(F)F)cc4)c3N2)cc1` (relative stereo) [Example 28, Cis-5-(p-tolyl)-7-(trifluoromethyl)-N-(4-(trifluoromethyl)benzyl)-4,5,6,7-tetrahydropyrazolo[1,5-a]pyrimidine-3-carboxamide], 1 to 2 µM (≈ 0.482 to 0.965 µg/mL); for `COc1ccc(CNC(=O)c2cnn3c2NC(c2ccc(C)cc2)CC3C(F)(F)F)cc1` (stereo not drawn) [Example 39, N-(4-methoxybenzyl)-5-(p-tolyl)-7-(trifluoromethyl)-4,5,6,7-tetrahydropyrazolo[1,5-a]pyrimidine-3-carboxamide], ≤ 1 µM. The value for `CCc1ccc([C@H]2C[C@@H](C(F)(F)F)n3ncc(C(=O)NCc4ncc(C)cc4F)c3N2)cc1` [Example 106, (5R,7S)-5-(4-ethylphenyl)-N-((3-fluoro-5-methylpyridin-2-yl)methyl)-7-(trifluoromethyl)-4,5,6,7-tetrahydropyrazolo[1,5-a]pyrimidine-3-carboxamide] was 1 to 2 µM (≈ 0.461 to 0.923 µg/mL); that for `CCc1ccc([C@H]2C[C@@H](C(F)(F)F)n3ncc(C(=O)NCc4ccoc4)c3N2)cc1` (relative stereo) [Example 12, Cis-5-(4-ethylphenyl)-N-(furan-3-ylmethyl)-7-(trifluoromethyl)-4,5,6,7-tetrahydropyrazolo[1,5-a]pyrimidine-3-carboxamide] was ≤ 1 µM.

Take `CCc1ccc([C@H]2C[C@@H](C(F)(F)F)n3ncc(C(=O)NCc4cccc(C)c4)c3N2)cc1` (relative stereo) [Example 3, Cis-5-(4-ethylphenyl)-N-(3-methylbenzyl)-7-(trifluoromethyl)-4,5,6,7-tetrahydropyrazolo[1,5-a]pyrimidine-3-carboxamide]: the MIC is ≤ 1 µM. Turning to `CCc1ccc([C@H]2C[C@@H](C(C)C)n3ncc(C(=O)NCc4ccc(C)cc4)c3N2)cc1` (relative stereo) [Example 66, Cis-5-(4-ethylphenyl)-7-isopropyl-N-(4-methylbenzyl)-4,5,6,7-tetrahydropyrazolo[1,5-a]pyrimidine-3-carboxamide], the MIC was ≤ 1 µM. The value for `COc1ccc(CNC(=O)c2cnn3c2NC(c2ccc(OC)cc2)CC3C(F)(F)F)cc1` (stereo not drawn) [Example 54, N-(4-methoxybenzyl)-5-(4-methoxyphenyl)-7-(trifluoromethyl)-4,5,6,7-tetrahydropyrazolo[1,5-a]pyrimidine-3-carboxamide] was > 2 µM; that for `CCc1ccc([C@@H]2C[C@H](C(F)(F)F)n3ncc(C(=O)NCc4ccc(OC)cc4)c3N2)cc1` (single isomer, unassigned) [Example 1b] was > 2 µM; that for `CCc1ccc([C@H]2C[C@@H](C(F)(F)F)n3ncc(C(=O)NCc4ccccc4)c3N2)cc1` (relative stereo) [Example 15, Cis-N-benzyl-5-(4-ethylphenyl)-7-(trifluoromethyl)-4,5,6,7-tetrahydropyrazolo[1,5-a]pyrimidine-3-carboxamide] was ≤ 1 µM.

Take `CCc1ccc([C@H]2C[C@@H](C(F)(F)F)n3ncc(C(=O)NCc4cccc(C(F)(F)F)c4)c3N2)cc1` (relative stereo) [Example 14, Cis-5-(4-ethylphenyl)-7-(trifluoromethyl)-N-{[3-(trifluoromethyl)phenyl]methyl}-4,5,6,7-tetrahydropyrazolo[1,5-a]pyrimidine-3-carboxamide]: the MIC fell in the range of 1 to 2 µM (≈ 0.496 to 0.993 µg/mL).

Take `CCc1ccc([C@H]2C[C@@H](C(F)(F)F)n3ncc(C(=O)NCc4ccc(C)c(F)c4)c3N2)cc1` (relative stereo) [Example 64, Cis-5-(4-ethylphenyl)-N-(3-fluoro-4-methylbenzyl)-7-(trifluoromethyl)-4,5,6,7-tetrahydropyrazolo[1,5-a]pyrimidine-3-carboxamide]: the MIC was ≤ 1 µM. For `Cc1ccc(C2CC(C(F)(F)F)n3ncc(C(=O)NCc4ccc5c(c4)OCO5)c3N2)cc1` (stereo not drawn) [Example 38, N-(benzo[d][1,3]dioxol-5-ylmethyl)-5-(p-tolyl)-7-(trifluoromethyl)-4,5,6,7-tetrahydropyrazolo[1,5-a]pyrimidine-3-carboxamide] the value was ≤ 1 µM; for `Cc1ccc([C@H]2C[C@@H](C(F)(F)F)n3ncc(C(=O)NCc4ccc(C)c(Cl)c4)c3N2)cc1` (relative stereo) [Example 29, Cis-N-(3-chloro-4-methylbenzyl)-5-(p-tolyl)-7-(trifluoromethyl)-4,5,6,7-tetrahydropyrazolo[1,5-a]pyrimidine-3-carboxamide], 1 to 2 µM (≈ 0.463 to 0.926 µg/mL). Take `CCc1ccc([C@@H]2C[C@H](C(F)(F)F)n3ncc(C(=O)NCc4ccco4)c3N2)cc1` (single isomer, unassigned) [Example 7b]: the MIC is > 2 µM. As for `CCc1ccc([C@H]2C[C@@H](C(F)(F)F)n3ncc(C(=O)NCc4ccc(F)c(C)c4)c3N2)cc1` (relative stereo) [Example 63, Cis-5-(4-ethylphenyl)-N-(4-fluoro-3-methylbenzyl)-7-(trifluoromethyl)-4,5,6,7-tetrahydropyrazolo[1,5-a]pyrimidine-3-carboxamide], the MIC is ≤ 1 µM. As for `Cc1ccc(C2CC(C(F)(F)F)n3ncc(C(=O)NCc4ccccc4Cl)c3N2)cc1` (stereo not drawn) [Example 52, N-(2-chlorobenzyl)-5-(p-tolyl)-7-(trifluoromethyl)-4,5,6,7-tetrahydropyrazolo[1,5-a]pyrimidine-3-carboxamide], the minimum inhibitory concentration (MIC) was > 2 µM.
